Several values for one entry are separate records, joined by “and”; a condition that tells them apart may be missing. Identical values can stand only once. Where a SMILES comes first, the peptide text is derived from it.
System: lipase
Assay: Lipase/lipolysis assay (EnzChek Lipase Substrate, quenched BODIPY-fatty acid conjugate) on stored human milk; note: test concentration or dose not given here

Going from `CC1(C)[C@@H](O)CC[C@]2(C)[C@H]3C(=O)C=C4[C@H]5C[C@@](C)(C(=O)O)CC[C@]5(C)CC[C@@]4(C)[C@]3(C)CC[C@@H]12` [18α-Glycyrrhetinic acid] to `CC1(C)[C@@H](O)CC[C@]2(C)[C@H]3C(=O)C=C4[C@@H]5C[C@@](C)(C(=O)O)CC[C@]5(C)CC[C@@]4(C)[C@]3(C)CC[C@@H]12` [18β-Glycyrrhetinic acid], the “Lipase (RFU)” value falls from 794.4219 RFU to 736.3555 RFU.

First: CC(C)=CCC[C@](C)(O)[C@H]1CC[C@]2(C)[C@@H]1[C@H](O)C[C@@H]1[C@@]3(C)CC[C@H](O[C@@H]4O[C@H](CO)[C@@H](O)[C@H](O)[C@H]4O[C@@H]4O[C@H](CO)[C@@H](O)[C@H](O)[C@H]4O)C(C)(C)[C@@H]3CC[C@]12C [20(S)-Ginsenoside Rg3]
Second: CC(C)=CCC[C@@](C)(O)[C@H]1CC[C@]2(C)[C@@H]1[C@H](O)C[C@@H]1[C@@]3(C)CC[C@H](O)C(C)(C)[C@@H]3CC[C@]12C [(20R)-Protopanaxadiol]
The “Lipase (RFU)” value of the first is lower: 979.4673 RFU for the first, 1067.282 RFU for the second.

Compared with `C[C@]12CC[C@H]3[C@@H](CC=C4C[C@@H](O)CC[C@@]43C)[C@@H]1CC[C@@H]2C(=O)CO` [21-Hydroxypregnenolone], `C[C@H](CCC(=O)O)[C@H]1CC[C@H]2[C@@H]3[C@H](O)C[C@H]4C[C@H](O)CC[C@]4(C)[C@H]3C[C@H](O)[C@]12C` [Allocholic acid] is higher in “Lipase (RFU)” value: 955.7541 RFU for the first, 1000.774 RFU for the second.

First: NCCP(=O)(O)O [(2-Aminoethyl)phosphonic acid]
Second: C[C@@H](CN)C(=O)O [(S)-b-aminoisobutyric acid]
The “Lipase (RFU)” value of the first is higher: 914.5342 RFU for the first, 859.5436 RFU for the second.

First: Oc1ccc([C@H]2Oc3cc(O)cc(O)c3C[C@@H]2O)cc1 [(+)-Afzelechin]
Second: Oc1cc(O)c2c(c1)O[C@H](c1ccc(O)c(O)c1)[C@H](O)C2 [(−)-Epicatechin]
The “Lipase (RFU)” value of the first is higher: 1063.84 RFU for the first, 927.1089 RFU for the second.

Compared with `Oc1cc(O)c2c(c1)O[C@H](c1cc(O)c(O)c(O)c1)[C@@H](O)C2` [(+)-Gallocatechin], `O=C(O[C@@H]1Cc2c(O)cc(O)cc2O[C@@H]1c1ccc(O)c(O)c1)c1cc(O)c(O)c(O)c1` [(−)-Epicatechin gallate] is lower in “Lipase (RFU)” value: 1096.904 RFU for the first, 982.8268 RFU for the second.

Going from `CC(C)[C@@H]1CC[C@H](C)CC1=O` [(+)-Isomenthone] to `C=C1C(=O)O[C@@H]2C[C@@]3(C)CCC[C@H](C)C3=C[C@H]12` [Alantolactone], the “Lipase (RFU)” value rises from 807.8808 RFU to 900.1725 RFU.

Going from `C=C1[C@H]2CC[C@@H]3[C@H]2C(C)(C)CCC[C@]13C` [(+)-Longifolene] to `CC1(C)CCC[C@]2(C)[C@H]3CCO[C@]3(C)CC[C@@H]12` [Ambroxide], the “Lipase (RFU)” value falls from 1228.195 RFU to 1042.515 RFU.

Compared with `C[C@H](N)C(=O)NCC(=O)O` [(S)-2-(2-Aminopropanamido)acetic acid] (H-Ala-Gly-OH), `CC(=O)N[C@@H](C)C(=O)O` [Ac-Ala-OH] is higher in “Lipase (RFU)” value: 993.8076 RFU for the first, 1189.332 RFU for the second.

Compared with `C[C@H](O)CO` [(S)-(+)-1,2-Propanediol], `CC(=O)O` [Acetic Acid] is lower in “Lipase (RFU)” value: 1392.598 RFU for the first, 1200.605 RFU for the second.

Compared with `CC(=O)O[C@@H]1CC[C@@]2(C)[C@@H](CC[C@]3(C)[C@@H]2C(=O)C=C2[C@@H]4[C@@H](C)[C@H](C)CC[C@]4(C)CC[C@]23C)[C@@]1(C)C(=O)O` [AKBA], `CC1(C)[C@@H](O[C@H]2O[C@H](C(=O)O)[C@@H](O)[C@H](O)[C@H]2O[C@@H]2O[C@H](C(=O)O)[C@@H](O)[C@H](O)[C@H]2O)CC[C@]2(C)[C@H]3C(=O)C=C4[C@@H]5C[C@@](C)(C(=O)O)CC[C@]5(C)CC[C@@]4(C)[C@]3(C)CC[C@@H]12` [Ammonium glycyrrhizinate] is lower in “Lipase (RFU)” value: 1066.269 RFU for the first, 918.7261 RFU for the second.

Compared with `Nc1ncnc2c1ncn2[C@@H]1O[C@H](COP(=O)(O)OP(=O)([O-])OP(=O)([O-])O)[C@@H](O)[C@H]1O.O.[Na+].[Na+]` [ATP (disodium salt hydrate)], `Nc1ncnc2c1ncn2[C@@H]1O[C@H](COP(=O)(O)OP(=O)(O)OP(=O)([O-])[O-])[C@@H](O)[C@H]1O.O.O.O.[Na+].[Na+]` [ATP (disodium trihydrate)] is higher in “Lipase (RFU)” value: 750.5023 RFU for the first, 947.4309 RFU for the second.

First: CC1=CC(=O)CC(C)(C)[C@@]1(O)/C=C/C(C)=C\C(=O)O [Abscisic acid]
Second: CC1(C)S[C@@H]2[C@H](NC(=O)[C@H](N)c3ccccc3)C(=O)N2[C@H]1C(=O)[O-].[Na+] [Ampicillin (sodium)]
The “Lipase (RFU)” value of the first is higher: 1087.943 RFU for the first, 844.0223 RFU for the second.

Compared with `CC(=O)O[C@H](CC(=O)O)C[N+](C)(C)C.[Cl-]` [Acetyl-L-carnitine (hydrochloride)], `NC(CCCC(=O)O)C(=O)O` (stereo not drawn) [Aminoadipic acid] is higher in “Lipase (RFU)” value: 1004.353 RFU for the first, 1118.253 RFU for the second.

Going from `Nc1ncnc2c1ncn2[C@@H]1O[C@H](COP(=O)(O)O)[C@@H](O)[C@H]1O.O` [Adenosine 5′-monophosphate monohydrate] to `Nc1ncnc2c1ncn2C1OC(CO)C2OP(=O)(O)OC21` (stereo not drawn) [Adenosine-2′,3′-cyclic monophosphate], the “Lipase (RFU)” value falls from 920.9967 RFU to 828.2019 RFU.

First: C/C1=C2/[N-][C@H]([C@H](CC(N)=O)[C@@]2(C)CCC(=O)NC[C@@H](C)OP(=O)([O-])O[C@H]2[C@@H](O)[C@@H](n3cnc4cc(C)c(C)cc43)O[C@@H]2CO)[C@]2(C)N=C(/C(C)=C3N=C(/C=C4N=C1[C@@H](CCC(N)=O)C\4(C)C)[C@@H](CCC(N)=O)[C@]\3(C)CC(N)=O)[C@@H](CCC(N)=O)[C@]2(C)CC(N)=O.[CH2-][C@H]1O[C@@H](n2cnc3c(N)ncnc32)[C@H](O)[C@@H]1O.[Co] [Adenosylcobalamin]
Second: O=C(O)[C@H]1O[C@@H](Oc2cc(O)c3c(=O)cc(-c4ccc(O)cc4)oc3c2)[C@H](O)[C@@H](O)[C@@H]1O [Apigenin-7-glucuronide]
The “Lipase (RFU)” value of the first is lower: 817.3471 RFU for the first, 991.8672 RFU for the second.

Going from `C[C@]12CCC(=O)C=C1CC[C@@H]1[C@@H]2C(=O)C[C@]2(C)C(=O)CC[C@@H]12` [Adrenosterone] to `CC1(C)S[C@@H]2[C@H](NC(=O)[C@H](N)c3ccc(O)cc3)C(=O)N2[C@H]1C(=O)[O-].[Na+]` [Amoxicillin (sodium)], the “Lipase (RFU)” value rises from 757.5347 RFU to 1082.26 RFU.

Going from `CC[C@H]1[C@@H]2C[C@H]3[C@@H]4N(C)c5ccccc5[C@]45C[C@@H]([C@H]2[C@H]5O)N3[C@@H]1O` [Ajmaline] to `CC(C)=CCc1c2ccoc2c(O)c2oc(=O)ccc12` [Alloimperatorin], the “Lipase (RFU)” value falls from 916.1038 RFU to 601.2746 RFU.

Compared with `COc1ccc2c(c1OC)CN(C)CCc1cc3c(cc1C(=O)C2)OCO3` [Allocryptopine], `O=S(=O)([O-])c1ccc2c(N=Nc3ccc(S(=O)(=O)[O-])c4ccccc34)c(O)c(S(=O)(=O)[O-])cc2c1.[Na+].[Na+].[Na+]` [Amaranth] is higher in “Lipase (RFU)” value: 960.1838 RFU for the first, 987.0531 RFU for the second.

`Cn1cncc1C[C@H](NC(=O)CCN)C(=O)O` [Anserine] was tested, and the “Lipase (RFU)” value was 1023.923 RFU.

`O=C(CO)[C@@H](O)[C@H](O)[C@@H](O)CO` [(3S,4R,5S)-1,3,4,5,6-Pentahydroxyhexan-2-one] was tested, and the “Lipase (RFU)” value was 1079.288 RFU and 1003.563 RFU.
For `O=C(O)C[C@H](O)C(=O)O` [(S)-Malic acid], the “Lipase (RFU)” value was 1015.072 RFU and 818.4693 RFU.
With `N#C[C@H](O[C@@H]1O[C@H](CO[C@@H]2O[C@H](CO)[C@@H](O)[C@H](O)[C@H]2O)[C@@H](O)[C@H](O)[C@H]1O)c1ccccc1` [Amygdalin] the “Lipase (RFU)” value was 1036.373 RFU and 736.6201 RFU.

From patent publication US12507703B2, “Methods, devices and compositions for preserving human milk” (The Trustees of Princeton University, priority 2023, dated 2025)
